Drawing on PubChem BioAssay AID270 (DTP/NCI, 2004), this text covers T/C for 14 compounds.

“And” between values parts separate entries of the source, which are not always exact repeats. Equal values may be shown once. Records with an inconclusive call do not appear.

The assay deals with BDF1 mice, s.c. Lewis lung carcinoma, T/C %. Kind of assay: NCI In Vivo Anticancer Drug Screen. Data for tumor model Lewis Lung Carcinoma (subcutaneous) in B6D2F1 (BDF1) mice. The procedure, abridged: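 First, mice carry a transplantable tumor. Next, groups receive either compound or vehicle. Finally, survival or tumor dimensions in the dosed animals are divided by the corresponding control figure.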

Setting [1] is: endpoint: median survival time, dose: 2.0 mg/kg/injection, schedule: Q01DX009 (ip), vehicle: saline with Tween-80, higher = longer survival.
The mark [2] stands for this setting: endpoint: median survival time, dose: 4.0 mg/kg/injection, schedule: Q01DX009 (ip), vehicle: saline with Tween-80, higher = longer survival.
[3] abbreviates: endpoint: median survival time, dose: 8.0 mg/kg/injection, schedule: Q01DX009 (ip), vehicle: saline with Tween-80, higher = longer survival.
Where [4] appears, read: endpoint: mean tumor weight, dose: 50.0 mg/kg/injection, schedule: Q01DX011 (ip), vehicle: saline, higher = larger tumour.
[5] abbreviates: endpoint: mean tumor weight, dose: 100.0 mg/kg/injection, schedule: Q01DX011 (ip), vehicle: saline, higher = larger tumour.

Consider `O=C(Nc1ccc(C2=NCCN2)cc1)c1ccc(C(=O)Nc2ccc(C3=NCCN3)cc2)c([N+](=O)[O-])c1`, for which the T/C (endpoint: mean tumor weight, dose: 4.0 mg/kg/injection, schedule: Q01DX011 (ip), vehicle: saline, higher = larger tumour) was 122 % of control; the T/C (endpoint: mean tumor weight, dose: 8.0 mg/kg/injection, schedule: Q01DX011 (ip), vehicle: saline, higher = larger tumour) is 85 % of control; the T/C (endpoint: mean tumor weight, dose: 16.0 mg/kg/injection, schedule: Q01DX011 (ip), vehicle: saline, higher = larger tumour) was 26 % of control.
With `Fc1ccc(NC(=S)Nc2cc(Cl)cc(Cl)c2)cc1`, the T/C (endpoint: mean tumor weight, dose: 7.5 mg/kg/injection, schedule: Q01DX011 (ip), vehicle: carboxymethylcellulose (CMC), higher = larger tumour) is 60 % of control.
In the case of `Cc1ccc(NC(=O)N(CCCl)N=O)cc1NC(=O)N(CCCl)N=O`, the T/C (endpoint: median survival time, dose: 3.12 mg/kg/injection, schedule: Q01DX009 (ip), vehicle: other, higher = longer survival) was 93 % of control and the T/C (endpoint: median survival time, dose: 6.25 mg/kg/injection, schedule: Q01DX009 (ip), vehicle: other, higher = longer survival) was 87 % of control.
Take `CCOC(=O)C(CC(C)C)NC(=O)C(Cc1ccc(N(CCCl)CCCl)cc1)NC(C)=O` (stereo not drawn): the T/C runs as follows: (endpoint: median survival time, dose: 1.0 mg/kg/injection, schedule: Q01DX009 (ip), vehicle: saline with Tween-80, higher = longer survival) 88 % of control; under setting [1], 95 % of control; under setting [2], 111 % of control; under setting [3], 108 % of control; (endpoint: median survival time, dose: 16.0 mg/kg/injection, schedule: Q01DX009 (ip), vehicle: saline with Tween-80, higher = longer survival) 116 % of control.
In the case of `Cc1cc(N(CCCl)CCCl)ccc1N=Nc1ccccc1C(=O)O`, the T/C under setting [1] was 101 % of control; the T/C under setting [2] is 105 % of control and 111 % of control; the T/C under setting [3] is 96 % of control and 104 % of control; the T/C (endpoint: median survival time, dose: 10.0 mg/kg/injection, schedule: Q01DX001 (ip), vehicle: saline with Tween-80, higher = longer survival) is 107 % of control; the T/C (endpoint: median survival time, dose: 20.0 mg/kg/injection, schedule: Q01DX001 (ip), vehicle: saline with Tween-80, higher = longer survival) was 92 % of control; the T/C (endpoint: median survival time, dose: 32.0 mg/kg/injection, schedule: Q04DX003 (ip), vehicle: saline with Tween-80, higher = longer survival) was 116 % of control.
In the case of `CC[C@H](c1ccc(O)cc1)[C@@H](CC)c1ccc(O)cc1`, the T/C is 92 % of control (endpoint: mean tumor weight, dose: 12.5 mg/kg/injection, schedule: Q01DX011 (ip), vehicle: saline, higher = larger tumour); 82 % of control (endpoint: mean tumor weight, dose: 25.0 mg/kg/injection, schedule: Q01DX011 (ip), vehicle: saline, higher = larger tumour); 47 % of control under setting [4]; 16 % of control under setting [5].
As for `O=c1[nH]cnc2nc[nH]c12`, the T/C by setting is: (endpoint: mean tumor weight, dose: 62.5 mg/kg/injection, schedule: Q01DX011 (ip), vehicle: saline, higher = larger tumour) 121 % of control; (endpoint: mean tumor weight, dose: 125.0 mg/kg/injection, schedule: Q01DX011 (ip), vehicle: saline, higher = larger tumour) 108 % of control; (endpoint: mean tumor weight, dose: 250.0 mg/kg/injection, schedule: Q01DX011 (ip), vehicle: saline, higher = larger tumour) 107 % of control; (endpoint: mean tumor weight, dose: 500.0 mg/kg/injection, schedule: Q01DX011 (ip), vehicle: saline, higher = larger tumour) 76 % of control.
For the compound `NC(=O)c1csc(C2OC(CO)C(O)C2O)n1` (stereo not drawn), the T/C is 190 % of control and 235 % of control (endpoint: median survival time, dose: 18.75 mg/kg/injection, schedule: Q01DX009 (ip), vehicle: water, higher = longer survival); 190 % of control and 235 % of control (endpoint: median survival time, dose: 37.5 mg/kg/injection, schedule: Q01DX009 (ip), vehicle: water, higher = longer survival); 190 % of control and 235 % of control (endpoint: median survival time, dose: 75.0 mg/kg/injection, schedule: Q01DX009 (ip), vehicle: water, higher = longer survival); 190 % of control and 235 % of control (endpoint: median survival time, dose: 150.0 mg/kg/injection, schedule: Q01DX009 (ip), vehicle: water, higher = longer survival); 190 % of control and 235 % of control (endpoint: median survival time, dose: 300.0 mg/kg/injection, schedule: Q01DX009 (ip), vehicle: water, higher = longer survival); 190 % of control and 235 % of control (endpoint: median survival time, dose: 600.0 mg/kg/injection, schedule: Q01DX009 (ip), vehicle: water, higher = longer survival).
As for `COc1cc(OC)c(-c2cc(=O)c3c(OC)c(OC)c(OC)c(OC)c3o2)cc1OC`, the T/C is, setting by setting: under setting [4], 73 % of control; under setting [5], 70 % of control; (endpoint: mean tumor weight, dose: 200.0 mg/kg/injection, schedule: Q01DX011 (ip), vehicle: saline, higher = larger tumour) 97 % of control; (endpoint: mean tumor weight, dose: 400.0 mg/kg/injection, schedule: Q01DX011 (ip), vehicle: saline, higher = larger tumour) 51 % of control.
For the compound `CN(CCC(=O)c1ccccc1)CCC(=O)c1ccccc1`, the T/C (endpoint: mean tumor weight, dose: 55.0 mg/kg/injection, schedule: Q01DX011 (ip), vehicle: other, higher = larger tumour) was 91 % of control and the T/C (endpoint: mean tumor weight, dose: 83.0 mg/kg/injection, schedule: Q01DX011 (ip), vehicle: other, higher = larger tumour) was 122 % of control.
In the case of `C=C1C(=O)OC2C3OC(C)(CCC(O)C3COC(C)=O)CC(OC(=O)/C(=C/C)COC(C)=O)C12` (stereo not drawn), the T/C is 107 % of control (endpoint: median survival time, dose: 3.12 mg/kg/injection, schedule: Q01DX009 (ip), vehicle: Klucel (hydroxypropylcellulose) (HPC), higher = longer survival); 101 % of control (endpoint: median survival time, dose: 3.13 mg/kg/injection, schedule: Q01DX009 (ip), vehicle: Klucel (hydroxypropylcellulose) (HPC), higher = longer survival); 101 % of control (endpoint: median survival time, dose: 6.25 mg/kg/injection, schedule: Q01DX009 (ip), vehicle: Klucel (hydroxypropylcellulose) (HPC), higher = longer survival); 114 % of control (endpoint: median survival time, dose: 12.5 mg/kg/injection, schedule: Q01DX009 (ip), vehicle: Klucel (hydroxypropylcellulose) (HPC), higher = longer survival); 106 % of control (endpoint: median survival time, dose: 25.0 mg/kg/injection, schedule: Q01DX009 (ip), vehicle: Klucel (hydroxypropylcellulose) (HPC), higher = longer survival).
For `O=NN(CCCl)C(=O)NC1CCS(=O)(=O)CC1`, the T/C was 180 % of control (endpoint: median survival time, dose: 5.0 mg/kg/injection, schedule: Q04DX004 (ip), vehicle: Klucel (hydroxypropylcellulose) (HPC), higher = longer survival); 231 % of control (endpoint: median survival time, dose: 7.0 mg/kg/injection, schedule: Q04DX004 (ip), vehicle: Klucel (hydroxypropylcellulose) (HPC), higher = longer survival); 121 % of control and 345 % of control (endpoint: median survival time, dose: 7.0 mg/kg/injection, schedule: Q04DX004 (ip), vehicle: carboxymethylcellulose (CMC), higher = longer survival); 109 % of control (endpoint: median survival time, dose: 8.5 mg/kg/injection, schedule: Q04DX004 (ip), vehicle: carboxymethylcellulose (CMC), higher = longer survival); 218 % of control (endpoint: median survival time, dose: 8.5 mg/kg/injection, schedule: Q07DX002 (ip), vehicle: carboxymethylcellulose (CMC), higher = longer survival); 123 % of control (endpoint: median survival time, dose: 10.0 mg/kg/injection, schedule: Q04DX004 (ip), vehicle: carboxymethylcellulose (CMC), higher = longer survival). Further, the T/C is, setting by setting: (endpoint: median survival time, dose: 11.0 mg/kg/injection, schedule: Q07DX002 (ip), vehicle: carboxymethylcellulose (CMC), higher = longer survival) 381 % of control; (endpoint: median survival time, dose: 14.0 mg/kg/injection, schedule: Q07DX002 (ip), vehicle: carboxymethylcellulose (CMC), higher = longer survival) 200 % of control.
In the case of `Nc1nc(SCc2ccccc2Cl)c2ncn(C3OC(CO)C(O)C3O)c2n1` (stereo not drawn), the T/C runs as follows: (endpoint: mean tumor weight, dose: 6.3 mg/kg/injection, schedule: Q01DX011 (ip), vehicle: other, higher = larger tumour) 56 % of control; (endpoint: mean tumor weight, dose: 12.5 mg/kg/injection, schedule: Q01DX011 (ip), vehicle: other, higher = larger tumour) 55 % of control; (endpoint: mean tumor weight, dose: 25.0 mg/kg/injection, schedule: Q01DX011 (ip), vehicle: other, higher = larger tumour) 49 % of control; (endpoint: mean tumor weight, dose: 50.0 mg/kg/injection, schedule: Q01DX011 (ip), vehicle: other, higher = larger tumour) 28 % of control.
Regarding `S=P(N1CC1)(N1CC1)N1CC1`, the T/C runs as follows: (endpoint: mean tumor weight, dose: 0.75 mg/kg/injection, schedule: Q01DX011 (ip), vehicle: water, higher = larger tumour) 79 % of control; (endpoint: mean tumor weight, dose: 1.5 mg/kg/injection, schedule: Q01DX011 (ip), vehicle: water, higher = larger tumour) 81 % of control; (endpoint: mean tumor weight, dose: 3.0 mg/kg/injection, schedule: Q01DX011 (ip), vehicle: water, higher = larger tumour) 44 % of control; (endpoint: mean tumor weight, dose: 6.0 mg/kg/injection, schedule: Q01DX011 (ip), vehicle: water, higher = larger tumour) 21 % of control; (endpoint: median survival time, dose: 0.5 mg/kg/injection, schedule: Q01DX009 (ip), vehicle: saline, higher = longer survival) 103 % of control; (endpoint: median survival time, dose: 1.0 mg/kg/injection, schedule: Q01DX009 (ip), vehicle: saline, higher = longer survival) 100 % of control. Further, the T/C reads like this: (endpoint: median survival time, dose: 1.0 mg/kg/injection, schedule: Q02DX009 (ip), vehicle: saline, higher = longer survival) 110 % of control; (endpoint: median survival time, dose: 1.5 mg/kg/injection, schedule: Q01DX009 (ip), vehicle: Klucel (hydroxypropylcellulose) (HPC), higher = longer survival) 103 % of control; (endpoint: median survival time, dose: 2.0 mg/kg/injection, schedule: Q01DX009 (ip), vehicle: saline, higher = longer survival) 100 % of control; (endpoint: median survival time, dose: 2.0 mg/kg/injection, schedule: Q02DX009 (ip), vehicle: saline, higher = longer survival) 98 % of control; (endpoint: median survival time, dose: 3.0 mg/kg/injection, schedule: Q01DX009 (ip), vehicle: Klucel (hydroxypropylcellulose) (HPC), higher = longer survival) 113 % of control; (endpoint: median survival time, dose: 4.0 mg/kg/injection, schedule: Q01DX009 (ip), vehicle: saline, higher = longer survival) 86 % of control. In addition, the T/C was 102 % of control (endpoint: median survival time, dose: 4.0 mg/kg/injection, schedule: Q02DX009 (ip), vehicle: saline, higher = longer survival) and 94 % of control (endpoint: median survival time, dose: 8.0 mg/kg/injection, schedule: Q02DX009 (ip), vehicle: saline, higher = longer survival).
